Values of other authors, collected in patent US12648892B2, “Emergency eye wash” (Lebrun Labs LLC, priority 2024, dated 2026).

What was measured:
[1] = tested on: eye; settings: eye damage classification; cited from earlier work; note: key: GHS Category 1 (Chemicals that cause extreme and irreversible damage to the eye)
[2] = most extreme pH value found for each chemical; includes diluted chemicals; cited from earlier work

In the case of CO[Si](CCCNCCN)(OC)OC [compound 95], the “in vivo GHS” value [1] is listed as 1.

For CC(C)(C)CC(C)(C)c1ccc(O)cc1 [compound 2], the “in vivo GHS” value [1] is listed as 1.

For Nc1ccc(F)cc1 [compound 50], the “in vivo GHS” value [1] is listed as 1 and the pH [2] is listed as 7.4.

In the case of CCCCCCCCCCCCCCCC[N+](C)(C)C.[Br-] [compound 28], the “in vivo GHS” value [1] is listed as 1.

In the case of O=S(=O)([O-])O.[Na+] [compound 65], the “in vivo GHS” value [1] is given as 1 and the pH [2] is given as under 1.0.

For O=C1C2CC=CCC2C(=O)N1SC(Cl)(Cl)Cl (stereo not shown) [compound 1], the “in vivo GHS” value [1] is listed as 1.

For CCCCCCCCCCCC(=O)[O-].[K+] [compound 59], the “in vivo GHS” value [1] is given as 1 and the pH [2] is given as 10.5.

In the case of N#CSc1ccc(N)c([N+](=O)[O-])c1 [compound 106], the “in vivo GHS” value [1] is listed as 1.

For CCN(CC)CCO [compound 53], the “in vivo GHS” value [1] is listed as 1 and the pH [2] is listed as 11.5.

In the case of CCCCCCCCN [compound 55], the “in vivo GHS” value [1] is given as 1 and the pH [2] is given as 11.8.

For CCN(CC)CCC#N [compound 108], the “in vivo GHS” value [1] is listed as 1.

In the case of O=C([O-])C(=O)[O-].[Na+].[Na+] [compound 4], the “in vivo GHS” value [1] is listed as 1.

For CCCOC(=O)C(C)O (stereo not shown) [compound 101], the “in vivo GHS” value [1] is listed as 1.

In the case of O=C(O)CCC(=O)C(=O)O [compound 49], the “in vivo GHS” value [1] is given as 1 and the pH [2] is given as 1.5.

In the case of O=S1(=O)OC(c2cc(Br)c(O)c(Br)c2)(c2cc(Br)c(O)c(Br)c2)c2c(Br)c(Br)c(Br)c(Br)c21 [compound 90], the “in vivo GHS” value [1] is given as 1.

In the case of CCCCCCCCCCCC[N+](C)(C)[O-] [compound 62], the “in vivo GHS” value [1] is listed as 1 and the pH [2] is listed as 9.0.

For CCCCCCCCCCCCCCCC[n+]1ccccc1.O.[Cl-] [compound 35], the “in vivo GHS” value [1] is listed as 1.

In the case of CCC[CH2][Sn]([CH2]CCC)([CH2]CCC)[O][Sn]([CH2]CCC)([CH2]CCC)[CH2]CCC [compound 9], the “in vivo GHS” value [1] is given as 1.

In the case of CCCCCCCCCCCC(=O)O [compound 8], the “in vivo GHS” value [1] is given as 1.

In the case of CSCCC(NC(C)=O)C(=O)O (racemic) [compound 88], the “in vivo GHS” value [1] is listed as 1.

In the case of Oc1ccc(Cl)cc1Cc1ccccc1 [compound 82], the “in vivo GHS” value [1] is given as 1.

In the case of CCCCC(CC)COC(=O)CC(C(=O)OCC(CC)CCCC)S(=O)(=O)[O-].[Na+] (stereo not shown) [compound 58], the “in vivo GHS” value [1] is listed as 1 and the pH [2] is listed as 6.5.

In the case of C=CC(=O)OCCOC [compound 79], the “in vivo GHS” value [1] is given as 1.

In the case of Cc1c(O)cccc1O [compound 100], the “in vivo GHS” value [1] is given as 1.

In the case of CCCCCCCCCCCCCCCC[N+](C)(C)C.[Cl-] [compound 5], the “in vivo GHS” value [1] is given as 1.

For C#CC(C)(O)CC (stereo not shown) [compound 76], the “in vivo GHS” value [1] is given as 1.

For CCCCO [compound 15], the “in vivo GHS” value [1] is listed as 1.

For [Na+].c1nc[n-]n1 [compound 105], the “in vivo GHS” value [1] is given as 1.

In the case of C1CCOC1 [compound 48], the “in vivo GHS” value [1] is listed as 1 and the pH [2] is listed as 8.0.

For CCCCCCCCCCCCCCCC[n+]1ccccc1.[Br-] [compound 84], the “in vivo GHS” value [1] is listed as 1.

In the case of CCCCCCCCCCCCOS(=O)(=O)[O-].[Na+] [compound 7], the “in vivo GHS” value [1] is given as 1.

For O=C([O-])c1ccccc1O.[Na+] [compound 13], the “in vivo GHS” value [1] is listed as 1.

In the case of O=c1[nH]sc2ccccc12 [compound 89], the “in vivo GHS” value [1] is listed as 1.

For CC(C)(C)c1ccc(O)c(O)c1 [compound 96], the “in vivo GHS” value [1] is listed as 1.

In the case of CCC(C)(C)C(=O)O [compound 94], the “in vivo GHS” value [1] is given as 1.

In the case of Nc1cccc(N)c1 [compound 18], the “in vivo GHS” value [1] is given as 1.

In the case of C=CC(=O)OCCO [compound 81], the “in vivo GHS” value [1] is given as 1.

For CC(O)C(=O)O (stereo not shown) [compound 17], the “in vivo GHS” value [1] is listed as 1.

For C=CC(=O)OCCOCCOCCOCCOC(=O)C=C [compound 42], the “in vivo GHS” value [1] is listed as 1 and the pH [2] is listed as 5.2.

For [Na+].[OH-] [compound 56], the “in vivo GHS” value [1] is listed as 1 and the pH [2] is listed as 14.0.

For CC(C)(O)C(=O)O [compound 51], the “in vivo GHS” value [1] is listed as 1 and the pH [2] is listed as 1.0.

For OCc1ccccc1 [compound 16], the “in vivo GHS” value [1] is given as 1.

In the case of CC(CN1c2ccccc2Sc2ccccc21)N(C)C.Cl (stereo not shown) [compound 21], the “in vivo GHS” value [1] is listed as 1.

For O=C=Nc1ccc(Cl)c(Cl)c1 [compound 107], the “in vivo GHS” value [1] is given as 1.

In the case of O=C(O)c1ccccc1 [compound 32], the “in vivo GHS” value [1] is given as 1.

For Oc1ccc2ccc(O)cc2c1 [compound 99], the “in vivo GHS” value [1] is given as 1.

In the case of CCO[Si](CCCN)(OCC)OCC [compound 52], the “in vivo GHS” value [1] is given as 1 and the pH [2] is given as 11.0.

In the case of CCOC(=O)C(C)(C)O [compound 83], the “in vivo GHS” value [1] is given as 1.

For CCN(CC)CCCC(C)Nc1c2ccc(Cl)cc2nc2ccc(OC)cc12 (stereo not shown) [compound 3], the “in vivo GHS” value [1] is given as 1.

For CCCCCCCCCCCC[N+](C)(C)CCOc1ccccc1.[Br-] [compound 26], the “in vivo GHS” value [1] is given as 1.

For O=C(OC(C(=O)O)C(OC(=O)c1ccccc1)C(=O)O)c1ccccc1 (stereo not shown) [compound 87], the “in vivo GHS” value [1] is given as 1.

In the case of c1ccncc1 [compound 20], the “in vivo GHS” value [1] is given as 1.

In the case of OCCCCCCCCCl [compound 69], the “in vivo GHS” value [1] is listed as 1.

For C[Si](C)(CCCN)O[Si](C)(C)CCCN [compound 91], the “in vivo GHS” value [1] is given as 1.

In the case of CC(C=O)Cc1ccc(C(C)(C)C)cc1 (stereo not shown) [compound 38], the “in vivo GHS” value [1] is given as 1.

For OC1CCCCC1 [compound 47], the “in vivo GHS” value [1] is given as 1 and the pH [2] is given as 6.5.

For CC(C)(O)CCC(C)(C)O [compound 68], the “in vivo GHS” value [1] is given as 1.

In the case of O=C(O)c1ccc(O)cc1O [compound 64], the “in vivo GHS” value [1] is listed as 1 and the pH [2] is listed as 3.0.

In the case of CCCCCCCC[N+](CCCCCCCC)(CCCCCCCC)CCCCCCCC.[Br-] [compound 66], the “in vivo GHS” value [1] is given as 1 and the pH [2] is given as 3.9.

In the case of CC(=O)O [compound 11], the “in vivo GHS” value [1] is given as 1.

For CCCCCCCCCCCCCCCCCC[N+](C)(C)CCCCCCCCCCCCCCCCCC [compound 39], the “in vivo GHS” value [1] is given as 1 and the pH [2] is given as 5.5.

In the case of Cc1ccccc1NC(=N)NC(=N)N [compound 92], the “in vivo GHS” value [1] is given as 1.

For COC(=O)CS [compound 93], the “in vivo GHS” value [1] is listed as 1.

In the case of CCCCOCCO [compound 46], the “in vivo GHS” value [1] is given as 1 and the pH [2] is given as 7.0.

In the case of O=S(=O)(Cl)c1ccccc1 [compound 80], the “in vivo GHS” value [1] is given as 1.

In the case of O=C(O)CO [compound 6], the “in vivo GHS” value [1] is listed as 1.

For O=C(O)C(Cl)(Cl)Cl [compound 57], the “in vivo GHS” value [1] is listed as 1 and the pH [2] is listed as under 1.0.

For CCCCCCCCCCCC[N+](C)(C)CC(O)CS(=O)(=O)[O-] (stereo not shown) [compound 71], the “in vivo GHS” value [1] is given as 1.

In the case of O=C([O-])c1c(Cl)c(Cl)c(Cl)c(Cl)c1-c1c2cc(Br)c(=O)c(Br)c-2oc2c(Br)c([O-])c(Br)cc12.[Na+].[Na+] [compound 34], the “in vivo GHS” value [1] is listed as 1.

In the case of CCCCCCCCCCCCCCCCCC[N+](C)(C)C [compound 60], the “in vivo GHS” value [1] is given as 1 and the pH [2] is given as 4.2.

In the case of O=C(O)Cc1cccc2ccccc12 [compound 43], the “in vivo GHS” value [1] is listed as 1 and the pH [2] is listed as 5.0.

In the case of c1c[nH]cn1 [compound 54], the “in vivo GHS” value [1] is listed as 1 and the pH [2] is listed as 10.5.
